Laboratory results as given in patent US9453040B2, “Glycodendrimers of polypropyletherimine” (priority 2010, dated 2016).

Tested on: pro-inflammatory cytokines such as IL-6, IL-8, IL-1 beta, TNF-alpha and MIP-1 beta
Experiment: Effect of unconjugated components on pro-inflammatory cytokines
Type: cell-based
Conditions: even at high doses

How did the “effect on pro-inflammatory cytokines such as IL-6, IL-8, IL-1 beta, TNF-alpha and MIP-1 beta” value turn out when `N[C@H]1C(O)O[C@H](CO)[C@@H](O)[C@@H]1O` (stereo partly shown) [glucosamine] was run?
Its value is “no effect”.
